This passage reports IC50 and GI50 results from US20220306659A1, “COMPOUND INHIBITING AND INDUCING DEGRADATION OF EGFR AND ALK” (BEIJING TIDE PHARMACEUTICAL CO., LTD., priority 2019, published 2022).

Test [1] deals with EGFR^L858R/T790M/C797S (Homo sapiens, UniProt P00533, C797S/L858R/T790M). Put plainly: EGFR inhibitory activity assay (TK-substrate-biotin/ATP, 665/615 ratio). The class given is biochemical. The settings on record: kinase inhibition. As for the experimental part:
EGFR Inhibitory Activity Assay
(1) A compound stock solution was prepared and diluted 3× to obtain a compound dilution; 10 nL of the compound dilution was transferred to a 384-well plate (784075, Greiner) by Echo 550;
(2) The plate was sealed, and centrifuged at 1,000 g for 1 min;
(4) 5 μl of the 2×EGFR protein working solution was added to the 384-well plate from step (2), centrifuged at 1,000 g for 30 s, and allowed to stand at room temperature (mixed thoroughly) for 10 min;
(6) 5 µL of the TK-substrate-biotin and ATP (the mixture prepared in step (5)) was added to the 384-well plate from step (4) to initiate the reaction;
(7) The mixture was centrifuged at 1,000 g for 30 s; the plate was sealed, and allowed to stand (and reacted) at room temperature for 40 min;
(8) 4×Sa-XL 665 and TK-antibody-Cryptate were prepared with detection buffer;
(9) 5 µL of the Sa-XL 665 and 5 µL of the TK-antibody-Cryptate were added successively to the 384-well plate from step (7);
(10) The mixture was centrifuged at 1,000 g for 30 s, and allowed to stand (reacted) at room temperature for 1 h;
(11) The fluorescence values were read at 615 nm and 665 nm by enzyme labeling instrument (PerkinElmer, 74785).
The ratio (665/615) of each well was calculated.
Formula of inhibition rate (%): […]
Ratiocmpd: Ratio (665/615) value of assay compound.
Ratiopositive: Average ratio (665/615) value of positive control.
Ratiovehicle: Average ratio (665/615) value of negative control.
(§1) The nonlinear regression curve (dose response-variable slope) between the value of inhibition rate (%) and the logarithm of compound concentration was fitted with graphpad prism 8.0, the effect dose curve of compound was drawn, and the IC50 value was calculated.

Test [2] deals with Ba/F3(EGFR^L858R/T790M/C797S) cells (Homo sapiens, UniProt P00533, T790M/C797S/L858R, cells depend on it). Put plainly: Assay of activity on Ba/F3 cells (CTG, 72 h). The class given is cell-based. The conditions noted are these: read-out: IC50 (nM) Ba/F3 (EGFR^L858R/T790M/C797S). As for the experimental part:
(2) A compound stock solution was prepared, and then diluted 3× to obtain a compound dilution. 30 nL of the compound dilution was added to a 384-well plate by Echo (Labcyte, Echo550). The cells were incubated in an incubator at 37° C. and 5% CO2 for 72 h.
The percent inhibition rate (% inhibition) was calculated by the following formula
LUMcmpd: Luminescence value of assay compound.
LUMpositive: Average LUM value of positive drug at a concentration of 10 μM.
LUMvehicle. Average LUM value of negative control group without drug treatment.
as §1
Y=Bottom+(Top−Bottom)/(1+1^((LogIC50−X)*HillSlope))
X-axis: logarithm of compound concentration; Y axis: inhibition rate ([…]).

By IC50 is commonly meant the point on the concentration scale where inhibition reaches its midpoint.

Sequence of Ba/F3(EGFR^L858R/T790M/C797S) cells (P00533 whole entry T790M/C797S/L858R): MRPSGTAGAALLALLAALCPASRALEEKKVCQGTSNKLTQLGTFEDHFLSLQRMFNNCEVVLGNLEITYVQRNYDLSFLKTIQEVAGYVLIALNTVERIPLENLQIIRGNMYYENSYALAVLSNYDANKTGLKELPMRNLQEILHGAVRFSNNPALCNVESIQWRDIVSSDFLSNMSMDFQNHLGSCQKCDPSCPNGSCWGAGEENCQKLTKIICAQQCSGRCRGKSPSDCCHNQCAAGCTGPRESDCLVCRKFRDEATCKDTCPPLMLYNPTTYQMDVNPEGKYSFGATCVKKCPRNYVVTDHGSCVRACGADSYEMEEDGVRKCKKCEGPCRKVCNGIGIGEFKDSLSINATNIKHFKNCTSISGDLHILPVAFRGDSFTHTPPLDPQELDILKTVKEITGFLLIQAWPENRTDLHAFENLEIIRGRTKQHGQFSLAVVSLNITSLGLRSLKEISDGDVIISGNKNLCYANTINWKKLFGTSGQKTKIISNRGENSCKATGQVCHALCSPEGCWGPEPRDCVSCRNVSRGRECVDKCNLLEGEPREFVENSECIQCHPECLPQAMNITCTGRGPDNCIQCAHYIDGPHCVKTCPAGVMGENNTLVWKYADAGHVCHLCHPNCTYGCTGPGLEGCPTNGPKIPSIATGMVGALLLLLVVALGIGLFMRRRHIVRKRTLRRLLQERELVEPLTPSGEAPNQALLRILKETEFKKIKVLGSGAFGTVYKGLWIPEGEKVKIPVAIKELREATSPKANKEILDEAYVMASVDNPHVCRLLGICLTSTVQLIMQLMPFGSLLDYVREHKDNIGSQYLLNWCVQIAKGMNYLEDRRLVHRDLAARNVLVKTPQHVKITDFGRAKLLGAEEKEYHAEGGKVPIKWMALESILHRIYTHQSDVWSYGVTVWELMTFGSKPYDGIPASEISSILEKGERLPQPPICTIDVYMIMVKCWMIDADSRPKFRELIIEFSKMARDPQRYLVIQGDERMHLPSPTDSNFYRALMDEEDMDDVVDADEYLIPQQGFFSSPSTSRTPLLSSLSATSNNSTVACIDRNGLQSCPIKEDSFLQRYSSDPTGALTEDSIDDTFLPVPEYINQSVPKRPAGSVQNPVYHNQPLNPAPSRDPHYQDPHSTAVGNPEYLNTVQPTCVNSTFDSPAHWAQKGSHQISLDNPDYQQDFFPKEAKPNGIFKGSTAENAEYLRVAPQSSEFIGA
Sequence of EGFR^L858R/T790M/C797S (P00533 25-1210 T790M/C797S/L858R): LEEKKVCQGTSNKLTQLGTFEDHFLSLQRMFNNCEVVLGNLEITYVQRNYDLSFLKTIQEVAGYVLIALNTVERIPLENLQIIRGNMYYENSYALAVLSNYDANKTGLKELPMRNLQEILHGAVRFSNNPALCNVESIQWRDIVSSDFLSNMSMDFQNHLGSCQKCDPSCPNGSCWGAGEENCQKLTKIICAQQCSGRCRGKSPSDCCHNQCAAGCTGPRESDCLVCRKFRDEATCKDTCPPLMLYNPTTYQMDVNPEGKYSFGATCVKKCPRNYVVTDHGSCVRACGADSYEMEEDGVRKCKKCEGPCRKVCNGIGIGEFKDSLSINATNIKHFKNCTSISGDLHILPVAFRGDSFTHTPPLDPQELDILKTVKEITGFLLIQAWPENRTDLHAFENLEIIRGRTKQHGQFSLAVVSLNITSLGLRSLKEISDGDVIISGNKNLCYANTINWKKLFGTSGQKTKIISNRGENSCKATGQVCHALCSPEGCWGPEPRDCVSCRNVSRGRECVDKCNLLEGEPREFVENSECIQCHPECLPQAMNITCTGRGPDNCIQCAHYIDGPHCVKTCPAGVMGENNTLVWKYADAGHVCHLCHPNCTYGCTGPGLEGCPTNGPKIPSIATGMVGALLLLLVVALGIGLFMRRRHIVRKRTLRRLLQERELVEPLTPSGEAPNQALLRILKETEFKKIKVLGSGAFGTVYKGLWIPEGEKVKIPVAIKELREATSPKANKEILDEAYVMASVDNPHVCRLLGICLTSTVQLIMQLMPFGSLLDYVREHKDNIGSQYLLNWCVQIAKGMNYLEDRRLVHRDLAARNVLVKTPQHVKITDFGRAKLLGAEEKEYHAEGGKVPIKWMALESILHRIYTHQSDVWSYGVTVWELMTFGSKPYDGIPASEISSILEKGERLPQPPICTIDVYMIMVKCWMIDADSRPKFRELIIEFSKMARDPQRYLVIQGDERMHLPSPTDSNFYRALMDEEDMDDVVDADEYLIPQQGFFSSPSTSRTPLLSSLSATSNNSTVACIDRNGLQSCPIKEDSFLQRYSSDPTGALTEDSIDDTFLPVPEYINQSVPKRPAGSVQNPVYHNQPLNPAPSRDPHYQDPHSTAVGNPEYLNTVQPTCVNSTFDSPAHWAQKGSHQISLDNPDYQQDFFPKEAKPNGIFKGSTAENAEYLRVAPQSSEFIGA

Take `COc1cc(N2CCC(N3CCN(CC(=O)NCCNc4cccc5c4C(=O)N(C4CCC(=O)NC4=O)C5=O)CC3)CC2)ccc1Nc1ncc(Cl)c(Nc2ccccc2P(C)(C)=O)n1` (stereo not drawn) [Compound A6, 2-(4-(1-(4-((5-chloro-4-((2-(dimethylphosphoryl)phenyl)amino)pyrimidin-2-yl)amino)-3-methoxyphenyl)piperidin-4-yl)piperazin-1-yl)-N-(2-((2-(2,6-dioxopiperidin-3-yl)-1,3-dioxoisoindolin-4-yl)amino)ethyl)acetamide]: the half-inhibitory concentration (IC50) in test [1] lay in the range of 1 to 100 nM.
Take `C=Cc1cnc(Nc2ccc(N3CCC(N4CCN(CCCCCCCCCOc5cccc6c5C(=O)N(C5CCC(=O)NC5=O)C6=O)CC4)CC3)cc2OC)nc1Nc1ccccc1P(C)(C)=O` (stereo not drawn) [Compound C25, 4-((9-(4-(1-(4-((4-((2-(dimethylphosphoryl)phenyl)amino)-5-vinylpyrimidin-2-yl)amino)-3-methoxyphenyl)piperidin-4-yl)piperazin-1-yl)nonyl)oxy)-2-(2,6-dioxopiperidin-3-yl)isoindoline-1,3-dione]: the GI50 in test [2] lay within 201 to 300 nM. Moreover, the concentration for half-maximal inhibition (IC50) in test [1] was 101 to 200 nM.
For the compound `COc1cc(N2CCC(N3CCN(CC(=O)N4CCC(OCC(=O)Nc5cccc6c5CN(C5CCC(=O)NC5=O)C6=O)CC4)CC3)CC2)ccc1Nc1ncc(Cl)c(Nc2ccccc2P(C)(C)=O)n1` (stereo not drawn) [Compound C78, 2-((1-(2-(4-(1-(4-((5-chloro-4-((2-(dimethylphosphoryl)phenyl)amino)pyrimidin-2-yl)amino)-3-methoxyphenyl)piperidin-4-yl)piperazin-1-yl)acetyl)piperidin-4-yl)oxy)—N-(2-(2,6-dioxopiperidin-3-yl)-1-oxoisoindolin-4-yl)acetamide], the GI50 in test [2] is more than 300 nM. In addition, in test [1], the half-inhibitory concentration (IC50) lay within 1 to 100 nM.
For `COc1cc(N2CCC(N3CCN(CC(=O)NC4CCN(CC(=O)Nc5cccc6c5CN(C5CCC(=O)NC5=O)C6=O)CC4)CC3)CC2)ccc1Nc1ncc(Cl)c(Nc2ccccc2P(C)(C)=O)n1` (stereo not drawn) [Compound C88, 2-(4-(1-(4-((5-chloro-4-((2-(dimethylphosphoryl)phenyl)amino)pyrimidin-2-yl)amino)-3-methoxyphenyl)piperidin-4-yl)piperazin-1-yl)-N-(1-(2-((2-(2,6-dioxopiperidin-3-yl)-1-oxoisoindolin-4-yl)amino)-2-oxoethyl)piperidin-4-yl)acetamide], in test [2], the GI50 was more than 300 nM. Also, the IC50 in test [1] was in the range of 1 to 100 nM.
The like results for `COc1cc(N2CCC(N3CCN(C(=O)CN4CCN(C(=O)COc5cccc6c5C(=O)N(C5CCC(=O)NC5=O)C6=O)CC4)CC3)CC2)ccc1Nc1ncc(Cl)c(Nc2ccccc2P(C)(C)=O)n1` (stereo not drawn) [Compound C99, 4-(2-(4-(2-(4-(1-(4-((5-chloro-4-((2-(dimethylphosphoryl)phenyl)amino)pyrimidin-2-yl)amino)-3-methoxyphenyl)piperidin-4-yl)piperazin-1-yl)-2-oxoethyl)piperazin-1-yl)-2-oxoethoxy)-2-(2,6-dioxopiperidin-3-yl)isoindoline-1,3-dione] were, in that order, more than 300 nM and 1 to 100 nM.
The like results for `COc1cc(N2CCC(N3CCN(C(=O)COc4cccc5c4C(=O)N(C4CCC(=O)NC4=O)C5=O)CC3)CC2)ccc1Nc1ncc(Cl)c(Nc2ccccc2P(C)(C)=O)n1` (stereo not drawn) [Compound C101, 4-(2-(4-(1-(4-((5-chloro-4-((2-(dimethylphosphoryl)phenyl)amino)pyrimidin-2-yl)amino)-3-methoxyphenyl)piperidin-4-yl)piperazin-1-yl)-2-oxoethoxy)-2-(2,6-dioxopiperidin-3-yl)isoindoline-1,3-dione] were, in that order, more than 300 nM and 1 to 100 nM.
For `COc1cc(N2CCC(N3CCN(C(=O)C4(C(=O)Oc5cccc6c5C(=O)N(C5CCC(=O)NC5=O)C6=O)CC4)CC3)CC2)ccc1Nc1ncc(Cl)c(Nc2ccccc2P(C)(C)=O)n1` (stereo not drawn) [Compound C104, 1-(4-(1-(4-((5-chloro-4-((2-(dimethylphosphoryl)phenyl)amino)pyrimidin-2-yl)amino)-3-methoxyphenyl)piperidin-4-yl)piperazine-1-carbonyl)cyclopropane-1-carboxylate 2-(2,6-dioxopiperidin-3-yl)-1,3-dioxoisoindolin-4-yl ester], in test [2], the GI50 was more than 300 nM. The IC50 in test [1] lay in the range of 1 to 100 nM.
Taken in the same sequence, the figures for `COc1cc(N2CCC(N3CCN(CC(=O)N4CC(F)(F)C[C@H]4C(=O)Nc4cccc5c4CN(C4CCC(=O)NC4=O)C5=O)CC3)CC2)ccc1Nc1ncc(Cl)c(Nc2ccccc2P(C)(C)=O)n1` (stereo partly drawn) [Compound C110, (2S)-1-(2-(4-(1-(4-((5-chloro-4-((2-(dimethylphosphoryl)phenyl)amino)pyrimidin-2-yl)amino)-3-methoxyphenyl)piperidin-4-yl)piperazin-1-yl)acetyl)-N-(2-(2,6-dioxopiperidin-3-yl)-1-oxoisoindolin-4-yl)-4,4-difluoropyrrolidine-2-carboxamide] were more than 300 nM and 1 to 100 nM.
For the compound `COc1cc(N2CCC(N3CCN(CC(=O)N[C@H](COc4cccc5c4C(=O)N(C4CCC(=O)NC4=O)C5=O)C(C)(C)C)CC3)CC2)ccc1Nc1ncc(Cl)c(Nc2ccccc2P(C)(C)=O)n1` (stereo partly drawn) [Compound C112, 2-(4-(1-(4-((5-chloro-4-((2-(dimethylphosphoryl)phenyl)amino)pyrimidin-2-yl)amino)-3-methoxyphenyl)piperidin-4-yl)piperazin-1-yl)-N-((2S)-1-((2-(2,6-dioxopiperidin-3-yl)-1,3-dioxoisoindolin-4-yl)oxy)-3,3-dimethylbutan-2-yl)acetamide], the IC50 in test [1] was 1 to 100 nM.
As to `COc1cc(N2CCC(N3CCN(CCCCCC#Cc4cccc5c4C(=O)N(C4CCC(=O)NC4=O)C5=O)CC3)CC2)ccc1Nc1ncc(Cl)c(Nc2ccccc2P(C)(C)=O)n1` (stereo not drawn) [Compound C148, 4-(7-(4-(1-(4-((5-chloro-4-((2-(dimethylphosphoryl)phenyl)amino)pyrimidin-2-yl)amino)-3-methoxyphenyl)piperidin-4-yl)piperazin-1-yl)hept-1-yn-1-yl)-2-(2,6-dioxopiperidin-3-yl)isoindoline-1,3-dione], in test [2], the GI50 was more than 300 nM. In test [1], the 50% inhibitory concentration (IC50) fell in the range of 1 to 100 nM.
